The assay has as its system 945468-187-T-J3-PDC spheroids with HUVEC/MSC, viability. The assay can be described thus: Anticancer human tumor 945468-187-T-J3-PDC patient-derived rectal carcinoma cell line growth inhibition [PI3K]. The following applies: for viability, T/C: stronger effect = lower value. Put shortly: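 Multi-cell spheroids combine tumor cells with HUVEC and human MSCs, treated with targeted agents alone or with inavolisib, alpelisib, duvelisib or copanlisib. Concentrations fall in half-log steps from at or near clinical Cmax, or from 10 microM where Cmax is unknown; viability read-out.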
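Also: spheroids exposed to agents for 7 days before viability read.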
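For viability, T/C in this document: 100% = DMSO vehicle control viability.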

For the compound `CC1(C)CCC(CN2CCN(c3ccc(C(=O)NS(=O)(=O)c4ccc(NCC5CCOCC5)c([N+](=O)[O-])c4)c(Oc4cnc5[nH]ccc5c4)c3)CC2)=C(c2ccc(Cl)cc2)C1` + Cc1nc(NC(=O)N2CCCC2C(N)=O)sc1-c1ccnc(C(C)(C)C(F)(F)F)c1, the concentration for half-maximal inhibition (IC50) was determined as 6.84 µM (curve of first compound, second compound 0.0316 µM); 6.42 µM (curve of first compound, second compound 0.1 µM); 6.58 µM (curve of first compound, second compound 0.316 µM); 6.68 µM (curve of first compound, second compound 1 µM); 6.32 µM (curve of first compound, second compound 3.16 µM); 4.27 µM (curve of first compound, second compound 10 µM). Also, the viability, T/C reads like this: (second compound 0.0316 µM, first compound 0.0316 µM) 95.4%; (second compound 0.0316 µM, first compound 0.1 µM) 109%; (second compound 0.0316 µM, first compound 0.316 µM) 97.5%; (second compound 0.0316 µM, first compound 1 µM) 120%; (second compound 0.0316 µM, first compound 3.16 µM) 125%; (second compound 0.0316 µM, first compound 10 µM) 20.8%. For the same compound, the viability, T/C is, setting by setting: (second compound 0.1 µM, first compound 0.0316 µM) 100%; (second compound 0.1 µM, first compound 0.1 µM) 108%; (second compound 0.1 µM, first compound 0.316 µM) 101%; (second compound 0.1 µM, first compound 1 µM) 117%; (second compound 0.1 µM, first compound 3.16 µM) 123%; (second compound 0.1 µM, first compound 10 µM) 12.5%. The viability, T/C (second compound 0.316 µM, first compound 0.0316 µM) is 107%; the viability, T/C (second compound 0.316 µM, first compound 0.1 µM) is 112%; the viability, T/C (second compound 0.316 µM, first compound 0.316 µM) was 113%; the viability, T/C (second compound 0.316 µM, first compound 1 µM) was 120%; the viability, T/C (second compound 0.316 µM, first compound 3.16 µM) was 130%; the viability, T/C (second compound 0.316 µM, first compound 10 µM) is 12.2%. Besides, the viability, T/C (second compound 1 µM, first compound 0.0316 µM) was 117%; the viability, T/C (second compound 1 µM, first compound 0.1 µM) is 115%; the viability, T/C (second compound 1 µM, first compound 0.316 µM) was 106%; the viability, T/C (second compound 1 µM, first compound 1 µM) is 113%; the viability, T/C (second compound 1 µM, first compound 3.16 µM) is 114%; the viability, T/C (second compound 1 µM, first compound 10 µM) is 15.8%. For the same compound, the viability, T/C was 116% (second compound 3.16 µM, first compound 0.0316 µM); 101% (second compound 3.16 µM, first compound 0.1 µM); 101% (second compound 3.16 µM, first compound 0.316 µM); 122% (second compound 3.16 µM, first compound 1 µM); 104% (second compound 3.16 µM, first compound 3.16 µM); 14.5% (second compound 3.16 µM, first compound 10 µM). The viability, T/C is, setting by setting: (second compound 10 µM, first compound 0.0316 µM) 70.7%; (second compound 10 µM, first compound 0.1 µM) 59%; (second compound 10 µM, first compound 0.316 µM) 63.8%; (second compound 10 µM, first compound 1 µM) 68.4%; (second compound 10 µM, first compound 3.16 µM) 63.3%; (second compound 10 µM, first compound 10 µM) 12.1%.
For the compound `CC(Nc1ccc2c(c1)OCCn1cc(N3C(=O)OCC3C(F)F)nc1-2)C(N)=O` (stereo not drawn), the viability, T/C was 103% [middle of 7 runs] (compound 0.00316 µM); 97.2% [middle of 7 runs] (compound 0.01 µM); 99.6% [middle of 7 runs] (compound 0.0316 µM); 99.6% [middle of 7 runs] (compound 0.316 µM); 73% [middle of 7 runs] (compound 1 µM). Further, the half-inhibitory concentration (IC50) (compound alone, run of 06/12/2023) was > 1 µM.

The term IC50 denotes the point on the concentration scale where inhibition reaches its midpoint. The viability, T/C is the result in the treated group divided by that in the control group, in per cent.
